The source of these data is patent publication US7642400B2, “Protein kinase C iota” (Mayo Foundation for Medical Education and Research, priority 2004, dated 2010).

In test [1] the target is T1, interaction of PKCι polypeptides with PAR6 polypeptides (Homo sapiens, UniProt P41743).
T1 construct: amino acids 1-113 or a full-length PKCι polypeptide; 6xHis; made in house
T1 sequence (P41743 10-122): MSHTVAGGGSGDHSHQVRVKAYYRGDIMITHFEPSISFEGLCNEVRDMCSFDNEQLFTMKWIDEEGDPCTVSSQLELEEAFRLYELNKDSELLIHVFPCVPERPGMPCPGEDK
The experiment in a line: Primary screen: FRET assay of PKCι113-YFP-N1 (PYN) and PAR6125-CFP-C1. Conditions: FIG. 18; less binding as concentration increased. Here is the method: A primary screen was performed as follows to identify test compound having the potential to inhibit the interaction of PKCι polypeptides with PAR6 polypeptides. Bacterially expressed PKCι113-YFP-N1 (PYN) was isolated from the soluble fraction of bacterial lysates by affinity purification according to the manufacturer's protocol (B-PER 6×His Purification Kit; Pierce). The purified polypeptide was dialyzed against Tris buffer (50 mM Tris, pH 8.0; 135 mM NaCl; 10% glycerol; 0.002% EDTA) containing 2 M urea. PAR6125-CFP-C1 recombinant polypeptide was isolated from the inclusion body pellets of bacterial lysates using the B-PER reagent (Pierce) according to the manufacturer's protocol. […] Yields were measured by fluorescence in a SpectraMax Gemini microplate reader (Molecular Devices).
To perform the assay, PYN was diluted to 4000 relative fluorescent units/50 μl in Tris buffer plus 1 M urea, and PAR6125-CFP-C1 was diluted to 400 relative fluorescent units/50 μl Tris buffer plus 1 M urea. […] Fluorescence was measured in a SpectraMax Gemini plate reader. Cyan fluorescence was measured at excitation 395 nm, emission 475 nm, and cutoff of 455 nm. Yellow fluorescence was measured at excitation 395 nm, emission 529, and cutoff of 515=n. […]

Test [2] deals with T1, interaction of PKCι polypeptides with PAR6 polypeptides. The test can be described thus: Secondary screen: PYN bound to plate-immobilised biotin-tagged PAR6. It is filed as binding. The settings on record: for Secondary Screen: amount of PYN bound to biotin-tagged PAR6 plates. How it is done: Multiple test compounds that were classified as hits in the primary screen as well as additional related compounds were evaluated in a secondary screen designed as follows. Briefly, a 96-well microtiter plate coated with streptavidin (Nunc #436014) was incubated for 2-4 hours at room temperature with 100 μl of a 20-30 μg/ml solution of biotin-tagged PAR6 (whole polypeptide) in phosphate-buffered saline containing Tween-20 (PBST). Plates were washed twice with PBST, then once with incubation buffer (50 mM Tris, pH 8.0; 135 mM NaCl; 10% glycerol; 0.002% EDTA). Incubation buffer (50 μl) was added to each well. The compounds to be tested were added (10 μl) followed by PYN (50 μl) diluted in incubation buffer to an approximate concentration of 4000-5000 relative fluorescent units per 50 μl. Plates were incubated overnight at 4° C. Plates were washed twice with incubation buffer, after which 50 μl incubation buffer was added to retain moisture in the wells. The amount of PYN bound on the plates was determined by measuring yellow fluorescence (532/526) in a Typhoon imager. Fluorescence was quantitated by Softmax Pro software.
A dose-response analysis was performed using the secondary screening assay and increasing amounts (e.g., 0, 0.1, 1, 10, 100, and […]) of gossypol, hexestrol, thimerosal, ebselen, ATG, ATM, ellagic acid, cisplatin, apomorphine, or phenylmercuric acetate.

The test system of test [3] is Rac1 activity in A549 cells. The test can be described thus: Rac1 activity assay (affinity isolation of GTP-bound Rac1) in A549 cells. It is filed as cell-based, human. The settings on record: A549 cells treated with PSI or stably expressing PKCι(1-113); FIG. 12E. How it is done:
Rac 1 Activity Assays: Rac1 activity in A549 and H1299 cell transfectants was assessed by affinity isolation of GTP-bound Rac1 using binding domains of PAK as described previously (Sander et al., J. Cell Biol., 143(5):1385-98 (1998)). Briefly, cells were lysed in lysis buffer (50 mM Tris-HCl pH 7.5, 150 mM NaCl, 20 mM MgCl2, 5 mM EGTA, 10% glycerol, 1% Triton X-100, 1% NP-40, 25 mM NaF, 1 mM phenylmethylsulfonyl fluoride, 1 mM sodium orthovanadate, 10 μg/ml leupeptin, 10 μg/ml aprotinin) at 4° C. for 5 min. Cellular debris was removed by centrifugation at 20,000×g for 5 min, and supernatants were transferred to new tubes containing 20 μl of GST-p21-binding domain of PAK1 (PAK1-PBD) coupled to agarose beads (Upstate). An aliquot of each supernatant was reserved to determine total Rac1 and actin expression by immunoblot analysis. Following a 30-minute incubation at 4° C., the agarose beads were collected by centrifugation and washed three times in wash buffer (50 mM Tris-HCl pH 7.5, 150 mM NaCl, 20 mM MgCl2, 5 mM EGTA, 10% glycerol, 1% Triton X-100, 1% NP-40, 25 mM NaF, 1 mM phenylmethylsulfonyl fluoride, 1 mM sodium orthovanadate, 10 μg/ml leupeptin, 10 μg/ml aprotinin). Bound polypeptides were solubilized by the addition of 30 μl of SDS sample buffer, resolved by SDS-PAGE, and subjected to immunoblot analysis for Rac1. An equivalent aliquot of the total cell lysate was subjected to immunoblot analysis to determine total Rac1 expression.
Rac 1 Activity Assays: A549 cells were incubated with the indicated concentration of ATG for one hour prior to analysis. Rac1 activity in A549 cells was assessed by affinity isolation of GTP-bound Rac1 using binding domains of PAK as described elsewhere (Sander et al., J. Cell Biol., 143:1385-98 (1998)). Briefly, cells were lysed in lysis buffer (50 mM Tris-HCl pH 7.5, 150 mM NaCl, 20 mM MgCl2, 5 mM EGTA, 10% glycerol, 1% Triton X-100, 1% NP-40, 25 mM NaF, 1 mM phenylmethylsulfonyl fluoride, 1 mM sodium orthovanadate, 10 μg/ml leupeptin, and 10 μg/ml aprotinin) at 4° C. for 5 min. […]

The subject of test [4] is A549 cells. The experiment in a line: Soft agar growth assay (anchorage-independent growth) of A549 cells. The class given is cell-based, human. Conditions: A549 cells expressing PKCι(1-113) versus A549/LZRS; FIG. 12G. Here is the method: (§1) Anchorage-independent growth was assayed by the ability of cells to form colonies in soft agar. The bottom agar consisted of growth medium containing 10% FBS and 0.75% agarose in 60-mm tissue culture dishes. Nine hundred cells were resuspended in growth medium containing 10% FBS and 0.75% agarose, and plated on top of the bottom agar. The cells were incubated at 37° C. in 5% CO2. Cell colonies were visualized and quantified under a dissecting microscope (Olympus) after 4-6 weeks in culture.
as §1, with “Soft Agar Growth Assays: Anchorage-independent growth” for “Anchorage-independent growth”, “and 0.75% agarose and plated” for “and 0.75% agarose, and plated”, “bottom agar. ATG was added at the indicated concentration to both bottom and top agar solutions. The cells” for “bottom agar. The cells”

Test [5] concerns A549 cells. The test can be described thus: Cell invasion through Matrigel-coated chambers, A549 transfectants. The class given is cell-based, human. Conditions: A549 cells expressing PKCι(1-113) versus A549/LZRS; FIG. 12F. How it is done: Cell Invasion and Soft Agar Growth Assays: A549 and H1299 transfectants were assayed for cell invasion using Matrigel-coated Transwell cell culture chambers (6,5-mm diameter, 8-μm pore size; BD Biosciences). A549 and H1299 cell transfectants in logarithmic growth phase were harvested with trypsin, the trypsin neutralized with serum-containing medium, and the cells pelleted and resuspended in serum-free growth medium. 2.5×10^4 cells were placed into the upper chamber of the Transwell insert, and growth medium containing 10% FBS was added to the lower chamber. After 22 hours at 37° C. in 5% CO2, non-invasive cells in the upper chambers were removed and invasive cells were fixed in 100% methanol and stained with 0.5% crystal violet (Sigma) in 2% ethanol. Cells which had invaded through the Matrigel-coated filter were counted on a microscope (X40, Olympus) using a calibrated ocular grid.

In test [6] the test system is RIE/Ras cells. The test can be described thus: Soft agar colony formation of RIE/Ras cells. It is filed as cell-based, rat. Conditions: RIE/Ras/PKCι(1-113) versus RIE/Ras cells; FIG. 9. The text has this:
To assess anchorage-independent growth, RIE cell transfectants were suspended in DMEM supplemented with 10% FBS, 1.5% agarose, and a 1% insulin, transferrin and selenium solution (Sigma-Aldrich), and plated (300 cells/60 mm dish) on a layer of 1.5% agar containing the same medium. Cell colonies were fixed with 20% methanol and stained with Giemsa after 7-14 days in culture and quantified under a dissecting microscope.

For `O=C(O)CC([S-])C(=O)O.[Au+]` (stereo not shown) [ATM, aurothiomaleate], the “dose-response in the FRET assay: relative binding of PKCι and PAR6 polypeptides” value in test [1] is on record as “dose-dependent effect”. For the same molecule, the “dose-response analysis using the secondary screening assay” value in test [2] (increasing amounts, e.g. 0, 0.1, 1, 10, 100, and 100 μM) is given as “dose-dependent response was detected”. Take `CCn1cc(C(=O)O)c(=O)c2cc(F)c(N3CCNC(C)C3)c(F)c21` (stereo not shown) [lomefloxacin]: the “Secondary Screen” value in test [2] is “lomefloxacin had no effect)”. On the same count and under the same terms, as for Antimycin A, the entry is “No effect”; as for Benzalkonium chloride, “No effect”. Take Veratrine sulfate: the “Secondary Screen” value in test [2] is given as “No effect”.

B1: PKCι(1-113): first 113 amino acids of PKCι, encompassing the PB1 domain, expressed in cells from a plasmid (protein)
chain: MPTQRDSSTMSHTVAGGGSGDHSHQVRVKAYYRGDIMITHFEPSISFEGLCNEVRDMCSFDNEQLFTMKWIDEEGDPCTVSSQLELEEAFRLYELNKDSELLIHVFPCVPERP
As to B1, the Rac1 activity result in test [3] is recorded as “inhibits Rac1 activity”. Further, the “anchorage-independent growth in soft agar” value in test [4] was “inhibits”. The A549 cell invasion result in test [5] is “inhibits”. The “soft agar colony formation” value in test [6] is “significantly less soft agar colony formation”.
